Data from PMC5653977 (EMBO Molecular Medicine, 2017).
Where a name gives a salt, the structure may show the parent alone.

Each compound was assayed on NRG1-ERBB4 signaling (assay: Nrg1-ERBB4-PIK3R1 split TEV co-culture compound screen of the NIH Clinical Collection). Conditions: not given.
Format: cell-based, human
Excerpt: For our HTS‐compatible split TEV assay approach, human full‐length ERBB4‐Cyt1 was fused to the NTEV fragment, a TEV protease cleavage site (tevS) and the artificial co‐transcriptional activator Gal4‐VP16 (ERBB4‐NTEV‐tevS‐GV); human PIK3R1 was fused to the CTEV fragment (PIK3R1‐CTEV) (Fig 1A). Upon ERBB4 activation, PIK3R1 is recruited to the receptor resulting in a reconstituted protease activity that cleaves off GV. In turn, released GV translocates to the nucleus and binds to upstream activating sequences (UAS) to activate the transcription of a firefly luciferase reporter gene (Fig 1A). A constitutively expressed Renilla luciferase driven under the control of the human thymidine kinase (TK) promoter was used as control to address off‐target effects related to toxicity.
For small molecule screening, the NIH‐NCC Clinical Collection library (sets NCC‐003 and NCC‐201) was used containing 727 small molecules that are FDA‐approved and have a history in clinical applications (www.nihclinicalcollection.com). A Hamilton Labstar robot connected to 37 and 4°C incubators for cell incubation and compound storage and application (Cytomat automated incubator, ThermoScientific) and to a luciferase reader (Berthold Technologies) was used to automatically perform the screening. […] Each batch was screened three times.
For one 96‐well plate, 4 × 10^6 PC12 cells were harvested and diluted in 5 ml assay medium (phenol red‐free DMEM (low glucose, Life Technologies), 10% FCS, 5% HS, no antibiotics). The split TEV assay plasmids (2 μg pcDNA3_ERBB4‐NTEV‐tevS‐GV‐2xHA, 2 μg pTag4C_PIK3R1‐CTEV‐2xHA, 2 μg p5xUAS_firefly luciferase, 2 μg pTK_Renilla luciferase, and 0.5 μg pECFP‐C1 for examining transfection efficiency) were diluted in 2.5 ml Opti‐MEM (Life Technologies) and vortexed. In parallel, 20 μl of the transfection reagent Lipofectamine 2000 was diluted in 2.5 ml Opti‐MEM and vortexed.
For plating of one 96‐well plate, 10 ml suspension, containing the 4 × 10^6 in solution‐transfected cells, was placed in the bubble paddle reservoir of the Hamilton Cellstar robot. 100 μl was seeded per 96‐well using the 96‐tip pipetting head. The homogeneity of the cell suspension was guaranteed over time by mild stirring using the paddling device inside the reservoir. For five plates each, 50 ml of additional cell suspension was used to allow for losses of inaccessible volume.
The cells were allowed to express the plasmids for 24 h before compounds were added. Proper expression and transfection efficiency were verified by ECFP expression on a clear control plate. The compounds were applied in a final concentration of 10 μM using DMSO as diluent. […] Thirty minutes later, 10,000 Nrg1‐expressing PC12 cells in 100 μl assay medium were seeded on top. 24 h after addition of the compounds, the cells were lysed using 40 μl Passive Lysis buffer (Promega) and subjected to a Dual Luciferase Assay (Promega) according to the manufacturer's instructions. The data were analyzed in R Bioconductor using the package cellHTS2 (http://www.bioconductor.org/packages/devel/bioc/html/cellHTS2.html), assessed using the z‐score, and visualized using the program Mondrian (http://stats.math.uni-augsburg.de/mondrian/).

Row | SMILES | Z-SCORE
1 | CCCSc1ccc2nc(NC(=O)OC)[nH]c2c1 [Albendazole, reference compound] | -5.48

Same assay, conditions: NIH Clinical Collection NCC-003 raw data; compounds ranked by Z-score; 'flagged' given instead of a Z-score

Row | SMILES | Z-SCORE
2 | O=C1CCc2ccc(OCCCCN3CCN(c4cccc(Cl)c4Cl)CC3)cc2N1 [ARIPIPRAZOLE] | -1.84
3 | C[C@H]1[C@H](OC(=O)CCC(=O)O)O[C@@H]2O[C@@]3(C)CC[C@H]4[C@H](C)CC[C@@H]1[C@@]24OO3 [ARTESUNATE] | flagged
4 | Cc1nnc2n1-c1ccc(Cl)cc1C(c1ccccc1)=NC2 [Alprazolam] | -2.27

Same assay, conditions: compound screen of the NIH Clinical Collection, sheet raw data NCC-003; compounds ranked by Z-score

Row | SMILES | Z-SCORE
5 | O=[N+]([O-])c1cccc2cn[nH]c12 [7-NITROINDAZOLE] | 0.29
6 | Cc1occc(=O)c1O [118-71-8] | 0.13
7 | CC=CC(=O)N(CC)c1ccccc1C [483-63-6] | -0.8
8 | CN1C(=O)CC[C@H]1c1cccnc1 [(-)-Cotinine] | -0.57
9 | C[C@H]1O[C@H](O[C@H]2[C@H](O)[C@@H](O)[C@@H](O[C@H]3[C@H](O)[C@@H](O)C(O)O[C@@H]3CO)O[C@@H]2CO)[C@H](O)[C@@H](O)[C@@H]1N[C@H]1C=C(CO)[C@@H](O)[C@H](O)[C@H]1O (stereo partly drawn) [ACARBOSE] | -0.8
10 | CC(=O)Nc1ccc(CC(=O)O)cc1 [ACTARIT] | -0.12
11 | COc1cc2nc(N(C)CCCNC(=O)C3CCCO3)nc(N)c2cc1OC (stereo not drawn) [ALFUZOSIN] | 0.03
12 | Cc1[nH]cnc1CN1CCc2c(c3ccccc3n2C)C1=O [ALOSETRON HCl] | 0.99
13 | CCCCC/C=C\C/C=C\C/C=C\C/C=C\CCCC(=O)Nc1ccc(O)cc1 [AM 404] | -1.01
14 | Cc1c(C(=O)NN2CCCCC2)nn(-c2ccc(Cl)cc2Cl)c1-c1ccc(I)cc1 [AM-251] | -0.56
15 | CC(NC(C)(C)C)C(=O)c1cccc(Cl)c1.Cl (stereo not drawn) [AMFEBUTAMONE HCl] | 0
16 | CCCCc1oc2ccccc2c1C(=O)c1cc(I)c(OCCN(CC)CC)c(I)c1 [AMIODARONE HYDROCHLORIDE] | -0.19
17 | CCOC(=O)OC(C)OC1=C(C(=O)Nc2ccccn2)N(C)S(=O)(=O)c2ccccc21 (stereo not drawn) [AMPIROXICAM] | 0.43
18 | O=C1CN2Cc3c(ccc(Cl)c3Cl)N=C2N1 [ANAGRELIDE HCl] | -0.48
19 | CC(C)(C#N)c1cc(Cn2cncn2)cc(C(C)(C)C#N)c1 [ANASTROZOLE] | -0.16
20 | CC1CNc2c(cccc2S(=O)(=O)N[C@@H](CCCNC(=N)N)C(=O)N2CC[C@@H](C)C[C@@H]2C(=O)O)C1 (stereo partly drawn) [ARGATROBAN] | -0.29
21 | CNCC[C@@H](Oc1ccccc1C)c1ccccc1 [ATOMOXETINE HCl] | 0.83
22 | COc1ccc(CC2c3cc(OC)c(OC)cc3CC[N+]2(C)CCC(=O)OCCCCCOC(=O)CC[N+]2(C)CCc3cc(OC)c(OC)cc3C2Cc2ccc(OC)c(OC)c2)cc1OC (stereo not drawn) [ATRACURIUM BESYLATE] | -0.66
23 | CN1CCCC(n2nc(Cc3ccc(Cl)cc3)c3ccccc3c2=O)CC1 (stereo not drawn) [AZELASTINE HCl] | -0.68
24 | O=C(c1ccc(F)cc1)C1CCN(CCn2c(=S)[nH]c3ccccc3c2=O)CC1 [Altanserin] | 0.71
25 | CCN1CCCC1CNC(=O)c1cc(S(=O)(=O)CC)c(N)cc1OC (stereo not drawn) [Amisulpride] | 0.41
26 | CC(C)c1ccc2oc3nc(N)c(C(=O)O)cc3c(=O)c2c1 [Amlexanox, reference compound] | 4.7
27 | CN1C(=O)COc2c(C(=O)NC3CN4CCC3CC4)cc(Cl)cc21 (stereo not drawn) [Azasetron] | 0.46
28 | O=C(O)CCNC(=O)c1ccc(/N=N/c2ccc(O)c(C(=O)O)c2)cc1 [BALSALAZIDE] | 0.84
29 | CCN(CC)CCOC(=O)C(O)(c1ccccc1)c1ccccc1 [BENACTYZINE HYDROCHLORIDE] | 2.48
30 | CCOC(=O)[C@H](CCc1ccccc1)N[C@H]1CCc2ccccc2N(CC(=O)O)C1=O [BENAZEPRIL HCl] | 0.26
31 | CC(COc1ccccc1Cc1ccccc1)N1CCCCC1.O=P(O)(O)O (stereo not drawn) [BENPROPERINE PHOSPHATE] | -0.08

Same assay, conditions: compounds at 10 μM, 24 h; PC12 split TEV assay cells co-cultured with Nrg1-expressing PC12 cells; analysed with cellHTS2

Row | SMILES | Z-SCORE
32 | CCCCC(=O)O[C@H]1CC[C@H]2[C@@H]3CCc4cc(O)ccc4[C@H]3CC[C@]12C [17-BETA-ESTRADIOL 17-VALERATE, reference compound] | -0.44
33 | C#C[C@]1(OC(C)=O)CC[C@H]2[C@@H]3CCC4=CC(=O)CC[C@@H]4[C@H]3CC[C@@]21C [19-NORETHINDRONE ACETATE, reference compound] | -0.99
34 | C#C[C@]1(O)CC[C@H]2[C@@H]3CCC4=CC(=O)CC[C@@H]4[C@H]3CC[C@@]21C [19-Norethindrone, reference compound] | 0.63
35 | CCCC(=O)Nc1ccc(OCC(O)CNC(C)C)c(C(C)=O)c1 (stereo not drawn) [ACEBUTOLOL HYDROCHLORIDE, reference compound] | 0.4
36 | CC(=O)OCC(=O)[C@@]12OC3(CCCC3)O[C@@H]1C[C@H]1[C@@H]3CCC4=CC(=O)C=C[C@]4(C)[C@@]3(F)[C@@H](O)C[C@@]12C [AMCINONIDE, reference compound] | -1.01
37 | Clc1ccc2c(c1)C(N1CCNCC1)=Nc1ccccc1O2 [AMOXAPINE, reference compound] | 0.4
38 | CC1(C)S[C@@H]2[C@H](NC(=O)[C@H](N)c3ccc(O)cc3)C(=O)N2[C@H]1C(=O)O [AMOXICILLIN CRYSTALLINE, reference compound] | -1.06
39 | CC(C)NCC(O)COc1ccc(CC(N)=O)cc1 (stereo not drawn) [ATENOLOL, reference compound] | 0.6
40 | CC(=O)Nc1nnc(S(N)(=O)=O)s1 [Acetazolamide, reference compound] | 0.2
41 | COc1cc(C)c(/C=C/C(C)=C/C=C/C(C)=C/C(=O)O)c(C)c1C [Acitretin, reference compound] | -0.6
42 | Nc1nc2c(ncn2COCCO)c(=O)[nH]1 [Acyclovir, reference compound] | 0.99
43 | Nc1ncnc2c1ncn2[C@@H]1O[C@H](CO)[C@@H](O)[C@@H]1O [Adenine 9-beta, reference compound] | 1.63
44 | c1ccc2c(CC3=NCCN3)cccc2c1 [Albalon, reference compound] | -0.27
45 | CC(C)(C(=O)O)c1ccc(C(O)CCCN2CCC(C(O)(c3ccccc3)c3ccccc3)CC2)cc1 (stereo not drawn) [Allegra, reference compound] | -0.84
46 | Oc1ncnc2[nH]ncc12 [Allopurinol, reference compound] | 0.21
47 | CN(C)c1nc(N(C)C)nc(N(C)C)n1 [Altretamine, reference compound] | -0.4
48 | CCC1(c2ccc(N)cc2)CCC(=O)NC1=O (stereo not drawn) [Aminoglutethimide, reference compound] | -0.62
49 | NCC(=O)CCC(=O)O [Aminolevulinic Acid, reference compound] | -0.04
50 | CC(C)c1ccc2oc3nc(N)c(C(=O)O)cc3c(=O)c2c1 [Amlexanox, reference compound] | 4.7
51 | CC1(C)S[C@@H]2[C@H](NC(=O)[C@H](N)c3ccccc3)C(=O)N2[C@H]1C(=O)O [Ampicillin Sodium, reference compound] | -1.31
52 | CN(C)CCCN1c2ccccc2CCc2ccc(Cl)cc21 [Anafranil, reference compound] | 0.12
53 | CN(C)CCC=C1c2ccccc2CCc2ccccc21.Cl [Annoyltin, reference compound] | 0.33
54 | OC(CCN1CCCCC1)(c1ccccc1)C1CCCCC1 (stereo not drawn) [Artane, reference compound] | -0.35
55 | Cn1cnc([N+](=O)[O-])c1Sc1ncnc2nc[nH]c12 [Azathioprine, reference compound] | 0.16
56 | CC[C@H]1OC(=O)[C@H](C)[C@@H](O[C@H]2C[C@@](C)(OC)[C@@H](O)[C@H](C)O2)[C@H](C)[C@@H](O[C@@H]2O[C@H](C)C[C@H](N(C)C)[C@H]2O)[C@](C)(O)C[C@@H](C)CN(C)[C@H](C)[C@@H](O)[C@]1(C)O [Azithromycin, reference compound] | 0.06
57 | CCC(=O)OCC(=O)[C@@]1(OC(=O)CC)[C@@H](C)C[C@H]2[C@@H]3CCC4=CC(=O)C=C[C@]4(C)[C@@]3(Cl)[C@@H](O)C[C@@]21C [BECLOMETHASONE DIPROPIONATE, reference compound] | 0.81
